Where a SMILES comes first, the peptide text is derived from it. Bridges are numbered along the chain shown (N, C = ends). Where no end group is shown, it is not given here.
B1: pro-HD5 (protein, UniProt Q01523 20-94, looked up)
pro-form: ESLQERADEATTQKQSGEDNQDLAISFAGNGLSALRTSGSQARATCYCRTGRCATRESLSGVCEISGRLYRLCCR
modifications: pro-form

Legend:
[1] = system: pseudotyped SARS-CoV-2 viruses in intestinal epithelial Caco-2 cells; settings: 25 μg/mL
[2] = system: pseudotyped SARS-CoV-2 viruses in lung epithelial A549 cells; format: cell-based; settings: 25 μg/mL
HEK 293T-hACE2 cells = test: Cytotoxicity assay (MTS); settings: 1-50 μg/mL, 24 h; hACE2-expressing HEK293T cells; O.D. 490 nm; 4-6 samples
[3] = system: pseudotyped viruses expressing SARS-CoV-2 spike proteins (Wuhan-Hu-1)

| Molecule | cytotoxicity (cell viability, MTS, in words) (HEK 293T-hACE2 cells) | anti-SARS-CoV-2 activity (in words) [3] | other results |
| --- | --- | --- | --- |
| CC[C@H](C)[C@@H]1NC(=O)[C@H](CCC(=O)O)NC(=O)[C@@H]2CSSC[C@@H]3NC(=O)[C@H](Cc4ccc(O)cc4)NC(=O)[C@@H](NC(=O)[C@@H](NC(=O)[C@H](C)N)[C@@H](C)O)CSSC[C@@H](C(=O)N[C@@H](CCCNC(=N)N)C(=O)O)NC(=O)[C@H](CSSC[C@H](NC(=O)[C@H](CCCNC(=N)N)NC(=O)CNC(=O)[C@H]([C@@H](C)O)NC(=O)[C@H](CCCNC(=N)N)NC3=O)C(=O)N[C@@H](C)C(=O)N[C@@H]([C@@H](C)O)C(=O)N[C@@H](CCCNC(=N)N)C(=O)N[C@@H](CCC(=O)O)C(=O)N[C@@H](CO)C(=O)N[C@@H](CC(C)C)C(=O)N[C@@H](CO)C(=O)NCC(=O)N[C@@H](C(C)C)C(=O)N2)NC(=O)[C@H](CC(C)C)NC(=O)[C@H](CCCNC(=N)N)NC(=O)[C@H](Cc2ccc(O)cc2)NC(=O)[C@H](CC(C)C)NC(=O)[C@H](CCCNC(=N)N)NC(=O)CNC(=O)[C@H](CO)NC1=O [HD5] (H-ATCYCRTGRCATRESLSGVCEISGRLYRLCCR-OH; disulfide 3-31, 5-20, 10-30 (inferred); N-terminus and C-terminus assumed) | not cytotoxic |  | anti-SARS-CoV-2 activity in Caco-2 cells (in words) [1]: exhibited anti-SARS-CoV-2 activity; anti-SARS-CoV-2 activity in A549 cells (in words) [2]: exhibited anti-SARS-CoV-2 activity; post-entry effect on infection (in words) [3]: None of the tested defensins affected infection after viral entry; protection by pre-treatment of cells (in words) [3]: partially blocked viral infection; suppression of SARS-CoV-2 infection [3]: 60%; inhibition of the earlier Wuhan strain ([3]; pseudotyped viruses expressing spike proteins (Wuhan-Hu-1, 48 h, 50 μg/mL)): 96% |
| HBD5 (GLDFSQPFPSGEFAVCESCKLGRGKCRKECLENEKPDGNCRLNFLCCRQRI; ends and bridges not checked; cysteine pairing not given here; UniProt Q8NG35 28-78, looked up) |  | did not effectively inhibit viral infection |  |
| HBD6 (FFDEKCNKLKGTCKNNCGKNEELIALCQKSLKCCRTIQPCGSIID; ends and bridges not checked; cysteine pairing not given here; UniProt Q8N104 21-65, looked up) |  | did not effectively inhibit viral infection |  |
| HD6 | not cytotoxic | only blocked SARS-CoV-2 infection at the highest concentration tested |  |
| HNP4 (VCSCRLVFCRRTELRVGNCLIGGVSFTYCCTRV; ends and bridges not checked; cysteine pairing not given here; UniProt P12838 64-96, looked up) |  | substantially less potent |  |
| B1 |  | no anti-SARS-CoV-2 activity |  |
